This is an account of results in ChEMBL document CHEMBL1121385, “Phenylalkylamines with potential psychotherapeutic utility. 2. Nuclear substituted 2-amino-1-phenylbutanes” (1980).

Bounds are passed on as bounds.

Assay [1] concerns Felis catus. The experiment in a line: Numerical score on cat behavior was measured at a dose of 10 mg/kg, administered subcutaneously. Particulars: route subcutaneous. Format: functional.
For assay [2], the system named is Felis catus. The experiment in a line: Numerical score on cat behavior was measured at a dose of 10 mg/kg administered subcutaneously. It counts as functional. Conditions: route subcutaneous.
The species entered for assay [3] is Rattus norvegicus. Briefly: Evaluated for intertrial interval activity in rat; statistically significant increase. Format: functional, organism-based.
For assay [4], the species on record is Rattus norvegicus. Briefly: Potency to produce a significant increase in avoidance responding in rat relative to BL-3912A. Format: functional.
Assay [5] has as its system Rattus norvegicus. The experiment in a line: Minimal dose (ip) required to produce a significant increase in avoidance responding in rat. Conditions: read-out: MED. Format: functional.
The species entered for assay [6] is Rattus norvegicus. The experiment in a line: Evaluated for intertrial interval activity in rat; NE means no statistically significant effect. It counts as functional, organism-based.
The species named for assay [7] is Rattus norvegicus. Briefly: Evaluated for intertrial interval activity in rat; NE means no statistically significant activity. Format: functional, organism-based.

In the assay on Felis catus [1], `CCCc1cc(OC)c(CC(N)CC)cc1OC.Cl` (racemic) showed a Cat score of 2.5. The same measure, in the same setting: the same measure for `CCCOc1cc(OC)c(CC(N)CC)cc1OC.Cl` (racemic): 0. On to `CCc1cc(OC)c(C[C@H](N)CC)cc1OC.Cl`, for which the Cat score in the assay on Felis catus [2] was 3.3. Further, the ITI activity entry in the assay filed under Rattus norvegicus [3] is “Statistically significant increase”. Moreover, the Relative potency in the assay listed under Rattus norvegicus [4] is reported as 2.5. In addition, in the assay with Rattus norvegicus [5], the minimal effective dose came out at 2 mg/kg. `CCOc1cc(OC)c(C[C@H](N)CC)cc1OC.Cl`: the Cat score in the assay with Felis catus [1] stood at 1.5. The same measure, in the same setting: under `CCC(N)Cc1cc(OC)c(SC)cc1OC.Cl` (racemic) stands 1. For the molecule `CC[C@@H](N)Cc1cc(OC)c(Cl)cc1OC.Cl`, the ITI activity result in the assay listed under Rattus norvegicus [6] was “No effect”. Also, in the assay with Felis catus [1], the Cat score is given as 6.5. In addition, the Relative potency in the assay listed under Rattus norvegicus [4] stood at 0.25. Moreover, the minimal effective dose in the assay with Rattus norvegicus [5] came out at 20 mg/kg. In turn, `CCc1cc(OC)c(C[C@@H](N)CC)cc1OC.Cl` returned a Cat score in the assay with Felis catus [1] of 1. The same measure, in the same setting: under `CC[C@@H](N)Cc1cc(OC)c(I)cc1OC.Cl` stands 2.5; under `CCCOc1cc(OC)c(C[C@H](N)CC)cc1OC.Cl`, 1.5; under `CCC(N)Cc1cc(OC)ccc1OC.Cl` (racemic), 2. Still for that read-out and setting: the same measure for `CCC(N)Cc1cc(OC)c(Br)cc1OC.Cl` (racemic): 2. `CC[C@H](N)Cc1cc(OC)c(C)cc1OC.Cl` had a Cat score in the assay on Felis catus [2] of 0.5.

In turn, `CC[C@@H](N)Cc1cc(OC)c(OC(C)C)cc1OC.Cl` yielded a Cat score in the assay with Felis catus [1] of 0. The molecule `CC[C@@H](N)Cc1cc(OC)c(C)cc1OC.Cl` [DIMOXAMINE HYDROCHLORIDE] registered a Cat score in the assay with Felis catus [2] of 1.3. In addition, in the assay filed under Rattus norvegicus [6], the ITI activity result was “No effect”. The same molecule yielded a Relative potency in the assay listed under Rattus norvegicus [4] of 1. Besides, in the assay with Rattus norvegicus [5], the minimal effective dose was 5 mg/kg. Consider `CC[C@@H](N)Cc1cc(OC)c(N)cc1OC.Cl`, for which, in the assay on Felis catus [1], the Cat score is listed as 1.5. For `CCC(N)Cc1cc(OC)c(C(C)C)cc1OC.Cl` (racemic), in the assay on Felis catus [1], the Cat score was 0.5. As to `CCCc1cc(OC)c(C[C@H](N)CC)cc1OC.Cl`, in the assay with Felis catus [1], the Cat score turned out to be 0.5. The ITI activity entry in the assay filed under Rattus norvegicus [3] is recorded as “Statistically significant increase”. In the assay listed under Rattus norvegicus [4], the Relative potency amounted to 5. Moreover, the minimal effective dose in the assay on Rattus norvegicus [5] worked out at 1 mg/kg. In the case of `CCC(N)Cc1cc(OC)ccc1OC.Cl` (single isomer, unassigned), the Cat score with Felis catus [1] (10 mg/kg) came out at 2. In the assay with Felis catus [1], `CC[C@H](N)Cc1cc(OC)c(SC)cc1OC.Cl` had a Cat score of 1. Same read-out and setting: the same measure for `CC[C@H](N)Cc1cc(OC)c(Br)cc1OC.Cl`: 2. The same measure, in the same setting: the same measure for `CC[C@@H](N)Cc1cc(OC)c([N+](=O)[O-])cc1OC.Cl`: 3.5. As for `CC[C@@H](N)Cc1cc(OC)c(C(C)C)cc1OC.Cl`, the ITI activity entry in the assay listed under Rattus norvegicus [6] was “No effect”. In the assay on Felis catus [1], this molecule displayed a Cat score of 0. Besides, the Relative potency in the assay filed under Rattus norvegicus [4] is given as less than 0.25. Moreover, the minimal effective dose in the assay on Rattus norvegicus [5] was more than 20 mg/kg. Regarding `CCc1cc(OC)c(CC(N)CC)cc1OC.Cl` (racemic), in the assay with Felis catus [2], the Cat score turned out to be 4. As for `CC[C@@H](N)Cc1cc(OC)c(O)cc1OC.Cl`, the Cat score in the assay on Felis catus [1] turned out to be 0.5. On to `CCCCc1cc(OC)c(C[C@H](N)CC)cc1OC.Cl`, for which the Cat score in the assay on Felis catus [1] is recorded as 0. The ITI activity result in the assay listed under Rattus norvegicus [7] was “No effect”. Also, the Relative potency in the assay listed under Rattus norvegicus [4] is reported as less than 0.25. Moreover, in the assay with Rattus norvegicus [5], the minimal effective dose was more than 20 mg/kg. Turning to `CC[C@@H](N)Cc1cc(OC)c(Br)cc1OC.Cl`, the Cat score in the assay with Felis catus [2] came to 3.5. Besides, in the assay listed under Rattus norvegicus [3], the ITI activity result is “Statistically significant increase”. This molecule had a Relative potency in the assay filed under Rattus norvegicus [4] of 2.5. Further, the minimal effective dose with Rattus norvegicus [5] was found to be 2 mg/kg. `CC[C@@H](N)Cc1cc(OC)ccc1OC.Cl`: the Cat score in the assay on Felis catus [1] (10 mg/kg) is listed as 0.5.
